Source: ChEMBL document CHEMBL5126592, “Design, synthesis and activity against drug-resistant bacteria evaluation of C-20, C-23 modified 5-O-mycaminosyltylonolide derivatives” (Eur J Med Chem, 2022)
Values after ≈ are worked out from the molar mass of the structure shown. Active and inactive are the calls of the source. The rule behind the calls is not given here.

Tests used:
[1] = system: Pseudomonas aeruginosa; test: Antibacterial activity against Pseudomonas aeruginosa LTP-3 incubated for 16 to 20 hrs by broth microdilution method; assay type: functional; settings: time 16-20 hrs
[2] = system: Staphylococcus aureus; test: Antibacterial activity against Staphylococcus aureus ATCC 29213 incubated for 16 to 20 hrs using 10^6 CFU/ml bacterial inoculum by broth microdilution method; assay type: functional; settings: time 16-20 hrs
[3] = system: Escherichia coli; test: Antibacterial activity against Escherichia coli ATCC 25922 incubated for 16 to 20 hrs using 10^7 CFU/ml bacterial inoculum by broth microdilution method; assay type: functional; settings: time 16-20 hrs
[4] = system: Staphylococcus aureus; test: Antibacterial activity against Staphylococcus aureus ATCC 29213 at pH 8.6 incubated for 16 to 20 hrs in presence of 10% foetal bovine serum by broth microdilution method; assay type: functional; settings: time 16-20 hrs
[5] = system: Cronobacter sakazakii; test: Antibacterial activity against Cronobacter sakazakii ATCC 29544 incubated for 16 to 20 hrs by broth microdilution method; assay type: functional; settings: time 16-20 hrs
[6] = system: Staphylococcus aureus; test: Antibacterial activity against Staphylococcus aureus ATCC 29213 incubated for 16 to 20 hrs using 10^4 CFU/ml bacterial inoculum by broth microdilution method; assay type: functional; settings: time 16-20 hrs
[7] = system: Staphylococcus aureus; test: Antibacterial activity against Staphylococcus aureus ATCC 29213 at pH 8.6 incubated for 16 to 20 hrs in absence of foetal bovine serum by broth microdilution method; assay type: functional; settings: time 16-20 hrs
[8] = system: Escherichia coli; test: Antibacterial activity against Escherichia coli ATCC 25922 incubated for 16 to 20 hrs using 10^6 CFU/ml bacterial inoculum by broth microdilution method; assay type: functional; settings: time 16-20 hrs
[9] = system: Staphylococcus aureus; test: Antibacterial activity against Staphylococcus aureus incubated for 16 to 20 hrs by broth microdilution method; assay type: functional; settings: time 16-20 hrs
[10] = system: Escherichia coli; test: Antibacterial activity against Escherichia coli ATCC 25922 incubated for 16 to 20 hrs in absence of foetal bovine serum by broth microdilution method; assay type: functional; settings: time 16-20 hrs
[11] = system: Enterococcus faecium; test: Antibacterial activity against Enterococcus faecium incubated for 16 to 20 hrs by broth microdilution method; assay type: functional; settings: time 16-20 hrs
[12] = system: Staphylococcus aureus; test: Antibacterial activity against Staphylococcus aureus ATCC 29213 incubated for 16 to 20 hrs using 10^5 CFU/ml bacterial inoculum by broth microdilution method; assay type: functional; settings: time 16-20 hrs
[13] = system: Streptococcus dysgalactiae; test: Antibacterial activity against Streptococcus dysgalactiae incubated for 16 to 20 hrs by broth microdilution method; assay type: functional; settings: time 16-20 hrs
[14] = system: Staphylococcus aureus; test: Antibacterial activity against Staphylococcus aureus ATCC 29213 at pH 8.6 incubated for 16 to 20 hrs in presence of 5% foetal bovine serum by broth microdilution method; assay type: functional; settings: time 16-20 hrs
[15] = system: Escherichia coli; test: Antibacterial activity against Escherichia coli ATCC 25922 incubated for 16 to 20 hrs using 10^4 CFU/ml bacterial inoculum by broth microdilution method; assay type: functional; settings: time 16-20 hrs
[16] = system: Escherichia coli; test: Antibacterial activity against Escherichia coli ATCC 25922 incubated for 16 to 20 hrs using 10^5 CFU/ml bacterial inoculum by broth microdilution method; assay type: functional; settings: time 16-20 hrs
[17] = system: Escherichia coli; test: Antibacterial activity against Escherichia coli ATCC 25922 incubated for 16 to 20 hrs in presence of 5% foetal bovine serum by broth microdilution method; assay type: functional; settings: time 16-20 hrs
[18] = system: Staphylococcus aureus; test: Antibacterial activity against Staphylococcus aureus ATCC 25923 incubated for 16 to 20 hrs by broth microdilution method; assay type: functional; settings: time 16-20 hrs
[19] = system: Escherichia coli; test: Antibacterial activity against Escherichia coli incubated for 16 to 20 hrs by broth microdilution method; assay type: functional; settings: time 16-20 hrs
[20] = system: Staphylococcus chromogenes; test: Antibacterial activity against Staphylococcus chromogenes incubated for 16 to 20 hrs by broth microdilution method; assay type: functional; settings: time 16-20 hrs
[21] = system: Escherichia coli; test: Antibacterial activity against Escherichia coli ATCC 25922 incubated for 16 to 20 hrs in presence of 50% foetal bovine serum by broth microdilution method; assay type: functional; settings: time 16-20 hrs
[22] = system: Staphylococcus aureus; test: Antibacterial activity against Staphylococcus aureus ATCC 29213 incubated for 16 to 20 hrs using 10^7 CFU/ml bacterial inoculum by broth microdilution method; assay type: functional; settings: time 16-20 hrs
[23] = system: Klebsiella pneumoniae; test: Antibacterial activity against Klebsiella pneumoniae ATCC 13883 incubated for 16 to 20 hrs by broth microdilution method; assay type: functional; settings: time 16-20 hrs
[24] = system: Staphylococcus aureus; test: Antibacterial activity against Staphylococcus aureus ATCC 29213 at pH 8.6 incubated for 16 to 20 hrs in presence of 50% foetal bovine serum by broth microdilution method; assay type: functional; settings: time 16-20 hrs
[25] = system: Escherichia coli; test: Antibacterial activity against Escherichia coli ATCC 25922 incubated for 16 to 20 hrs in presence of 25% foetal bovine serum by broth microdilution method; assay type: functional; settings: time 16-20 hrs
[26] = system: Staphylococcus aureus; test: Antibacterial activity against Staphylococcus aureus ATCC 29213 incubated for 16 to 20 hrs using 10^3 CFU/ml bacterial inoculum by broth microdilution method; assay type: functional; settings: time 16-20 hrs
[27] = system: Escherichia coli; test: Antibacterial activity against Escherichia coli ATCC 25922 incubated for 16 to 20 hrs by broth microdilution method; assay type: functional; settings: time 16-20 hrs
[28] = system: Escherichia coli; test: Antibacterial activity against Escherichia coli ATCC 25922 incubated for 16 to 20 hrs in presence of 10% foetal bovine serum by broth microdilution method; assay type: functional; settings: time 16-20 hrs
[29] = system: Staphylococcus aureus; test: Antibacterial activity against Staphylococcus aureus ATCC 29213 at pH 8.6 incubated for 16 to 20 hrs in presence of 25% foetal bovine serum by broth microdilution method; assay type: functional; settings: time 16-20 hrs
[30] = system: Escherichia coli; test: Antibacterial activity against Escherichia coli ATCC 25922 incubated for 16 to 20 hrs using 10^3 CFU/ml bacterial inoculum by broth microdilution method; assay type: functional; settings: time 16-20 hrs
[31] = system: Escherichia coli; test: Induction of drug resistance in Escherichia coli ATCC 25922 assessed as increase in MIC measured after 30 passages by broth microdilution method; assay type: functional
[32] = system: Staphylococcus aureus; test: Bactericidal activity against Staphylococcus aureus ATCC 29213 incubated for 20 to 24 hrs by CLSI based analysis; assay type: functional; settings: time 20-24 hrs
[33] = system: Staphylococcus aureus; test: Antibacterial activity against Staphylococcus aureus ATCC 29213 incubated for 16 to 20 hrs by broth microdilution method; assay type: functional; settings: time 16-20 hrs
[34] = system: Escherichia coli; test: Ratio of MBC to MIC for Escherichia coli ATCC 25922; assay type: functional
[35] = system: Escherichia coli; test: Inhibition of protein synthesis in Escherichia coli ATCC 25922 assessed as reduction in protein content at […] measured upto 12 hrs by microporous enzyme labeling method relative to control; assay type: functional
[36] = system: Escherichia coli; test: Bactericidal activity against Escherichia coli ATCC 25922 incubated for 20 to 24 hrs by CLSI based analysis; assay type: functional; settings: time 20-24 hrs
[37] = system: Staphylococcus aureus; test: Antibacterial activity against Staphylococcus aureus ATCC 25923 infected in kunming mouse assessed as reduction in viable pathogens at 32.5 mg/kg, iv measured after 1 hr; assay type: functional, organism-based
[38] = system: Staphylococcus aureus; test: Ratio of MBC to MIC for Staphylococcus aureus ATCC 29213; assay type: functional

CC[C@H]1OC(=O)C[C@@H](O)[C@H](C)[C@@H](O[C@@H]2O[C@H](C)[C@@H](O[C@H]3C[C@@](C)(O)[C@@H](O)[C@H](C)O3)[C@H](N(C)C)[C@H]2O)[C@@H](CC=O)C[C@@H](C)C(=O)/C=C/C(C)=C/[C@@H]1CO[C@@H]1O[C@H](C)[C@@H](O)[C@@H](OC)[C@H]1OC [TYLOSIN]
MIC [1]: 32 µg/mL (≈ 34.9 µM)
MIC [2]: 1 µg/mL (≈ 1.09 µM)
MIC [3]: > 32 µg/mL
MIC [4]: > 32 µg/mL
MIC [5]: > 32 µg/mL
MIC [6]: 0.5 µg/mL (≈ 0.546 µM)
MIC [7]: 2 µg/mL (≈ 2.18 µM)
MIC [8]: > 32 µg/mL
MIC [9]: 0.25 µg/mL (≈ 0.273 µM)
MIC [10]: > 32 µg/mL
MIC [11]: 1 µg/mL (≈ 1.09 µM)
MIC [12]: 0.5 µg/mL (≈ 0.546 µM)
MIC [13]: 1 µg/mL (≈ 1.09 µM)
MIC [14]: > 32 µg/mL
MIC [15]: > 32 µg/mL
MIC [16]: > 32 µg/mL
MIC [17]: > 32 µg/mL
MIC [18]: 0.5 µg/mL (≈ 0.546 µM)
MIC [19]: > 32 µg/mL
MIC [20]: 0.5 µg/mL (≈ 0.546 µM)
MIC [21]: > 32 µg/mL
MIC [22]: 1 µg/mL (≈ 1.09 µM)
MIC [23]: > 32 µg/mL
MIC [24]: > 32 µg/mL
MIC [25]: > 32 µg/mL
MIC [26]: 0.5 µg/mL (≈ 0.546 µM)
MIC [27]: > 32 µg/mL
MIC [28]: > 32 µg/mL
MIC [29]: > 32 µg/mL
MIC [30]: > 32 µg/mL

CC(=O)NC[C@H]1CN(c2ccc(N3CCOCC3)c(F)c2)C(=O)O1 [LINEZOLID]
MIC [1]: 32 µg/mL (≈ 94.9 µM)
MIC [2]: 1 µg/mL (≈ 2.96 µM)
Activity [31]: Active
MIC [4]: > 32 µg/mL
MIC [5]: > 32 µg/mL
MIC [6]: 0.25 µg/mL (≈ 0.741 µM)
MIC [9]: 1 µg/mL (≈ 2.96 µM)
MIC [11]: 2 µg/mL (≈ 5.93 µM)
MIC [12]: 0.5 µg/mL (≈ 1.48 µM)
MIC [13]: 2 µg/mL (≈ 5.93 µM)
MIC [14]: > 32 µg/mL
MIC [19]: 32 µg/mL (≈ 94.9 µM)
MIC [20]: 1 µg/mL (≈ 2.96 µM)
MIC [23]: > 32 µg/mL
MIC [24]: > 32 µg/mL
MIC [26]: 0.25 µg/mL (≈ 0.741 µM)
MIC [27]: > 32 µg/mL
MIC [29]: > 32 µg/mL

CC[C@H]1OC(=O)C[C@@H](O)[C@H](C)[C@@H](O[C@@H]2O[C@H](C)[C@@H](O)[C@H](N(C)C)[C@H]2O)[C@@H](CCN2CCCCC2)C[C@@H](C)C(=O)/C=C/C(C)=C/[C@@H]1CN1CCCCC1 [TILDIPIROSIN]
MIC [1]: 4 µg/mL (≈ 5.45 µM)
MIC [2]: 4 µg/mL (≈ 5.45 µM)
MIC [3]: 2 µg/mL (≈ 2.72 µM)
MIC [4]: 8 µg/mL
MIC [5]: 16 µg/mL (≈ 21.8 µM)
MIC [6]: 1 µg/mL (≈ 1.36 µM)
MIC [7]: 4 µg/mL (≈ 5.45 µM)
MIC [8]: 2 µg/mL (≈ 2.72 µM)
MIC [9]: 32 µg/mL (≈ 43.6 µM)
MIC [10]: 2 µg/mL (≈ 2.72 µM)
MIC [11]: 32 µg/mL (≈ 43.6 µM)
MIC [12]: 2 µg/mL (≈ 2.72 µM)
MIC [13]: 32 µg/mL (≈ 43.6 µM)
MIC [14]: 4 µg/mL
MIC [15]: 1 µg/mL (≈ 1.36 µM)
MIC [16]: 1 µg/mL (≈ 1.36 µM)
MIC [17]: 2 µg/mL
MIC [18]: 16 µg/mL (≈ 21.8 µM)
MIC [19]: 16 µg/mL (≈ 21.8 µM)
MBC [32]: > 32 µg/mL
MIC [33]: 16 µg/mL (≈ 21.8 µM)
Ratio [34]: 4
MIC [20]: 16 µg/mL (≈ 21.8 µM)
inhibition [35]: 26.5%
MIC [21]: 4 µg/mL
MIC [22]: 4 µg/mL (≈ 5.45 µM)
MIC [23]: 8 µg/mL (≈ 10.9 µM)
MBC [36]: 4 µg/mL (≈ 5.45 µM)
MIC [24]: 16 µg/mL
MIC [25]: 4 µg/mL
Activity [37]: Active
Ratio [38]: >2
MIC [26]: 0.5 µg/mL (≈ 0.681 µM)
MIC [27]: 1 µg/mL (≈ 1.36 µM)
MIC [28]: 2 µg/mL
MIC [29]: 16 µg/mL
MIC [30]: 0.5 µg/mL (≈ 0.681 µM)

CS(=O)(=O)c1ccc([C@@H](O)[C@@H](CF)NC(=O)C(Cl)Cl)cc1
Activity [31]: Active

C[C@@H](O)[C@H]1C(=O)N2C(C(=O)O)=C(S[C@@H]3CN[C@H](C(=O)N(C)C)C3)[C@H](C)[C@H]12 [MEROPENEM]
MIC [1]: < 0.0625 µg/mL
MIC [3]: < 0.0625 µg/mL
MIC [5]: 0.0625 µg/mL (≈ 0.163 µM)
MIC [8]: < 0.0625 µg/mL
MIC [9]: < 0.0625 µg/mL
MIC [10]: < 0.0625 µg/mL
MIC [11]: 8 µg/mL (≈ 20.9 µM)
MIC [13]: 8 µg/mL (≈ 20.9 µM)
MIC [15]: < 0.0625 µg/mL
MIC [16]: < 0.0625 µg/mL
MIC [17]: < 0.0625 µg/mL
MIC [18]: 0.0625 µg/mL (≈ 0.163 µM)
MIC [19]: < 0.0625 µg/mL
MIC [20]: 0.0625 µg/mL (≈ 0.163 µM)
MIC [21]: < 0.0625 µg/mL
MIC [23]: < 0.0625 µg/mL
MIC [25]: < 0.0625 µg/mL
MIC [27]: 0.125 µg/mL (≈ 0.326 µM)
MIC [28]: < 0.0625 µg/mL
MIC [30]: < 0.0625 µg/mL
